# Data reported in US8129137B2, “Two-photon probe for real-time monitoring of intracellular free zinc ions, method for preparing the probe and method for real-time monitoring of intracellular free zinc ions using the probe” (Korea University Industrial & Academic Collaboration …, priority 2008, dated 2012).
# Key:
# [1] = Two-photon cross section and action spectra; assay type: physicochemical; conditions: in methanol in the presence of Zn2+; 780 nm
# Procedure: The two-photon cross section (δ) was determined by using femto second (fs) fluorescence measurement technique.
# The intensities of the two-photon induced fluorescence spectra of the reference and the sample probe were measured, and the two-photon cross section of the sample probe was calculated according to Equation 3:
# [formula] wherein the subscripts s and r represent sample and reference molecules, respectively, δ represents the two-photon cross section, S represents the strength of signals collected by a CCD detector, φ represents the fluorescence quantum efficiency, φrepresents the total fluorescence collection efficiency of an experimental system, c represents the number density of the molecules within each of the solutions, and δr represents the two-photon cross section of reference molecules.
# Referring to FIG. 9, the two-photon action spectra of the Zn^2+ complexes with AZn1 and AZn2 in the buffer solutions indicated a φδ value of ˜90 GM at 780 nm, 4˜24-fold larger than those of TSQ and FluZin-3.
# [2] = Fluorescence quantum yield (Coumarin 307 as reference); assay type: physicochemical; conditions: in methanol in the presence of Zn2+
# Procedure: The absorption spectra of the two-photon probes were recorded on a Hewlett-Packard 8453 diode array spectrophotometer, and the fluorescence spectra of the two-photon probes were obtained with an Amico-Bowman series 2 luminescence spectrometer with a 1 cm standard quartz cell. The fluorescence quantum yields of the two-photon probes were determined by using Coumarin 307 as the reference by the literature method (J. N. Demas, G. A. Crosby, J. Phys. Chem. 1971, 75, 991-1024.). FIGS. 2a and 2b are one-photon absorption and emission spectra of the two-photon probe AZn1, respectively, and FIGS. 2c and 2d are one-photon absorption and emission spectra of the two-photon probe AZn2, respectively.
compound,measurement,setting,value
"COc1cc(NS(=O)(=O)c2ccc(C)cc2)c2ncccc2c1 [TSQ, reference compound]","δ, peak two-photon cross section",[1],10 GM
same,"φδ, two-photon action cross section",[1],4 GM
same,fluorescence quantum yield φ,[2],0.43
